Assay results reported in ChEMBL document CHEMBL4507276 (2021).

What was measured:
[1] = target: T1, Tyrosine-protein kinase Tec (Homo sapiens) (UniProt P42680); assay: TEC Invitrogen selectivity data (BI); conditions: Compound concentration 3.0 uM
T1 sequence (whole entry): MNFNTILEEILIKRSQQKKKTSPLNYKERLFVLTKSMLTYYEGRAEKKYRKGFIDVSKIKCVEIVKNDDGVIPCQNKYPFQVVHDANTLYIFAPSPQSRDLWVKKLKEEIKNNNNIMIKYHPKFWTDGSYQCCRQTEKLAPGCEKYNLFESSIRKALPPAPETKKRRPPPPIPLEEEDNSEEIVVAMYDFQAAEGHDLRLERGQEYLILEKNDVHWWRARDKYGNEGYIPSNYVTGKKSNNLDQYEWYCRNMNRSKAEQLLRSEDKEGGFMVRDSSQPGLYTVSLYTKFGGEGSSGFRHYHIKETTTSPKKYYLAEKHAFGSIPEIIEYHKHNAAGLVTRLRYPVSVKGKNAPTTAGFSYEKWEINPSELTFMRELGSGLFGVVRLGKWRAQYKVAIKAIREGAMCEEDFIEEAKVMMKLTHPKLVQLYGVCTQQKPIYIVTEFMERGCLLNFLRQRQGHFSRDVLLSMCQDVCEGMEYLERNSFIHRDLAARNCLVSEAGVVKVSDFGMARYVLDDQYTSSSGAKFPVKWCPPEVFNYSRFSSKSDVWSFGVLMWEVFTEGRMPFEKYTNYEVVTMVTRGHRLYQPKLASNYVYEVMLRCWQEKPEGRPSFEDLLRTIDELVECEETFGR

[2] = target: Mitogen-activated protein kinase 11 (Homo sapiens) (UniProt Q15759); assay: MAPK11 Invitrogen selectivity data (BI); conditions: Compound concentration 3.0 uM
[3] = target: High affinity nerve growth factor receptor (Homo sapiens) (UniProt P04629); assay: NTRK1 Invitrogen selectivity data (BI); conditions: Compound concentration 3.0 uM
[4] = target: Calcium/calmodulin-dependent protein kinase type II subunit alpha (Homo sapiens) (UniProt Q9UQM7); assay: CAMK2A Invitrogen selectivity data (BI); conditions: Compound concentration 3.0 uM
[5] = target: T2, Ephrin type-B receptor 4 (Homo sapiens) (UniProt P54760); assay: EPHB4 Invitrogen selectivity data (BI); conditions: Compound concentration 3.0 uM
T2 sequence (whole entry): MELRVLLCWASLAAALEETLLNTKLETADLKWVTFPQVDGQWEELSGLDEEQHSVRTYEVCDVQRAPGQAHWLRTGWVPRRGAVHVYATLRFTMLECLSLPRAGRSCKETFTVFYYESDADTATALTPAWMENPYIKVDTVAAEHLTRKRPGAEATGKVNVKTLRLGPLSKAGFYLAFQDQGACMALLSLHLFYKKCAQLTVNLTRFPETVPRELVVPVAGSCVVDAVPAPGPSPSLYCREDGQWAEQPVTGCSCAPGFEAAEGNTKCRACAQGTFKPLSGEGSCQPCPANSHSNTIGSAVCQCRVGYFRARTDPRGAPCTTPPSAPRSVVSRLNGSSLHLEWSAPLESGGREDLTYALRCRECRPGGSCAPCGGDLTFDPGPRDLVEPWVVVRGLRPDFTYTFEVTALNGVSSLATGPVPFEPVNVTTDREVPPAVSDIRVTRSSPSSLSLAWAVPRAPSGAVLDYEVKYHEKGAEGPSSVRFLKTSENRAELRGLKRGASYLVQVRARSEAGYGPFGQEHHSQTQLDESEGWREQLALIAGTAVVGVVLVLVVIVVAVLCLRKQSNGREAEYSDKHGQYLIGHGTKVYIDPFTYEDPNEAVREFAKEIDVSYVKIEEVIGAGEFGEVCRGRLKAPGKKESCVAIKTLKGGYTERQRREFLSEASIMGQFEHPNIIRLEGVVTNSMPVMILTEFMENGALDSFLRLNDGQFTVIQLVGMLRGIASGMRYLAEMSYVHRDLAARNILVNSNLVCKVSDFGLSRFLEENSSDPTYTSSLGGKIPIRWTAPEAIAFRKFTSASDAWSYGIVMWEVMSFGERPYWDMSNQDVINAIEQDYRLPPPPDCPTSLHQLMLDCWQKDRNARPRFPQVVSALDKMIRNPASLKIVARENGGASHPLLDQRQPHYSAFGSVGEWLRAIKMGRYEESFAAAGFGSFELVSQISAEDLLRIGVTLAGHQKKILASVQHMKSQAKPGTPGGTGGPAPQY

[6] = target: Kappa-type opioid receptor (Homo sapiens) (UniProt P41145); assay: KAPPA/HU Eurofins-Panlabs selectivity data (BI); conditions: Compound concentration 10.0 uM
[7] = target: Proto-oncogene tyrosine-protein kinase ROS (Homo sapiens) (UniProt P08922); assay: ROS1 Invitrogen selectivity data (BI); conditions: Compound concentration 3.0 uM
[8] = target: Serine/threonine-protein kinase SIK2 (Homo sapiens) (UniProt Q9H0K1); assay: SNF1LK2 Invitrogen selectivity data (BI); conditions: Compound concentration 3.0 uM
[9] = target: Serine/threonine-protein kinase MRCK alpha (Homo sapiens) (UniProt Q5VT25); assay: CDC42 BPA Invitrogen selectivity data (BI); conditions: Compound concentration 3.0 uM
[10] = target: Platelet-activating factor receptor (Homo sapiens) (UniProt P25105); assay: PAF/H Eurofins-Panlabs selectivity data (BI); conditions: Compound concentration 10.0 uM
[11] = target: Serine/threonine-protein kinase pim-1 (Homo sapiens) (UniProt P11309); assay: PIM1 Invitrogen selectivity data (BI); conditions: Compound concentration 3.0 uM
[12] = target: Sodium channel regulatory subunit beta-1 (Rattus norvegicus) (UniProt Q00954); assay: NA+/SITE2/R Cerep selectivity data (BI); conditions: Compound concentration 20.0 uM
[13] = target: T3, Calcium/calmodulin-dependent protein kinase type IV (Homo sapiens) (UniProt Q16566); assay: CAMK4 Invitrogen selectivity data (BI); conditions: Compound concentration 3.0 uM
T3 sequence (whole entry): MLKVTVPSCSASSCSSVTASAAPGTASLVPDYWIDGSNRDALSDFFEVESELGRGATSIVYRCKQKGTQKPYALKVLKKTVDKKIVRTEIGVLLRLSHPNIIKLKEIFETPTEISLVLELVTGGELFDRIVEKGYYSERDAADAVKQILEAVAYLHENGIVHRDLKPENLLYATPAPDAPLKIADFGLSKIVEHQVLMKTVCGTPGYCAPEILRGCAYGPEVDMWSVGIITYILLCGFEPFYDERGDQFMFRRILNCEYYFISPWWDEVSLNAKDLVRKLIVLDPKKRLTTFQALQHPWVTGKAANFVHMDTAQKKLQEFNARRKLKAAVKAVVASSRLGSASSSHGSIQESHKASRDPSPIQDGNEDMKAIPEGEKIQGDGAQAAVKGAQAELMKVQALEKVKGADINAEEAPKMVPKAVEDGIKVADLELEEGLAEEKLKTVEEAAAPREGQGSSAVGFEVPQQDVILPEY

[14] = target: Phosphatidylinositol 3-kinase regulatory subunit gamma (Bos taurus) (UniProt O46404); assay: PROTKINP55 Cerep selectivity data (BI); conditions: Compound concentration 20.0 uM
[15] = target: Estrogen receptor (Homo sapiens) (UniProt P03372); assay: ERALPHA/H Eurofins-Panlabs selectivity data (BI); conditions: Compound concentration 10.0 uM

Measured: residual activity

Proto-oncogene tyrosine-protein kinase ROS (Homo sapiens), sequence (P08922 whole entry): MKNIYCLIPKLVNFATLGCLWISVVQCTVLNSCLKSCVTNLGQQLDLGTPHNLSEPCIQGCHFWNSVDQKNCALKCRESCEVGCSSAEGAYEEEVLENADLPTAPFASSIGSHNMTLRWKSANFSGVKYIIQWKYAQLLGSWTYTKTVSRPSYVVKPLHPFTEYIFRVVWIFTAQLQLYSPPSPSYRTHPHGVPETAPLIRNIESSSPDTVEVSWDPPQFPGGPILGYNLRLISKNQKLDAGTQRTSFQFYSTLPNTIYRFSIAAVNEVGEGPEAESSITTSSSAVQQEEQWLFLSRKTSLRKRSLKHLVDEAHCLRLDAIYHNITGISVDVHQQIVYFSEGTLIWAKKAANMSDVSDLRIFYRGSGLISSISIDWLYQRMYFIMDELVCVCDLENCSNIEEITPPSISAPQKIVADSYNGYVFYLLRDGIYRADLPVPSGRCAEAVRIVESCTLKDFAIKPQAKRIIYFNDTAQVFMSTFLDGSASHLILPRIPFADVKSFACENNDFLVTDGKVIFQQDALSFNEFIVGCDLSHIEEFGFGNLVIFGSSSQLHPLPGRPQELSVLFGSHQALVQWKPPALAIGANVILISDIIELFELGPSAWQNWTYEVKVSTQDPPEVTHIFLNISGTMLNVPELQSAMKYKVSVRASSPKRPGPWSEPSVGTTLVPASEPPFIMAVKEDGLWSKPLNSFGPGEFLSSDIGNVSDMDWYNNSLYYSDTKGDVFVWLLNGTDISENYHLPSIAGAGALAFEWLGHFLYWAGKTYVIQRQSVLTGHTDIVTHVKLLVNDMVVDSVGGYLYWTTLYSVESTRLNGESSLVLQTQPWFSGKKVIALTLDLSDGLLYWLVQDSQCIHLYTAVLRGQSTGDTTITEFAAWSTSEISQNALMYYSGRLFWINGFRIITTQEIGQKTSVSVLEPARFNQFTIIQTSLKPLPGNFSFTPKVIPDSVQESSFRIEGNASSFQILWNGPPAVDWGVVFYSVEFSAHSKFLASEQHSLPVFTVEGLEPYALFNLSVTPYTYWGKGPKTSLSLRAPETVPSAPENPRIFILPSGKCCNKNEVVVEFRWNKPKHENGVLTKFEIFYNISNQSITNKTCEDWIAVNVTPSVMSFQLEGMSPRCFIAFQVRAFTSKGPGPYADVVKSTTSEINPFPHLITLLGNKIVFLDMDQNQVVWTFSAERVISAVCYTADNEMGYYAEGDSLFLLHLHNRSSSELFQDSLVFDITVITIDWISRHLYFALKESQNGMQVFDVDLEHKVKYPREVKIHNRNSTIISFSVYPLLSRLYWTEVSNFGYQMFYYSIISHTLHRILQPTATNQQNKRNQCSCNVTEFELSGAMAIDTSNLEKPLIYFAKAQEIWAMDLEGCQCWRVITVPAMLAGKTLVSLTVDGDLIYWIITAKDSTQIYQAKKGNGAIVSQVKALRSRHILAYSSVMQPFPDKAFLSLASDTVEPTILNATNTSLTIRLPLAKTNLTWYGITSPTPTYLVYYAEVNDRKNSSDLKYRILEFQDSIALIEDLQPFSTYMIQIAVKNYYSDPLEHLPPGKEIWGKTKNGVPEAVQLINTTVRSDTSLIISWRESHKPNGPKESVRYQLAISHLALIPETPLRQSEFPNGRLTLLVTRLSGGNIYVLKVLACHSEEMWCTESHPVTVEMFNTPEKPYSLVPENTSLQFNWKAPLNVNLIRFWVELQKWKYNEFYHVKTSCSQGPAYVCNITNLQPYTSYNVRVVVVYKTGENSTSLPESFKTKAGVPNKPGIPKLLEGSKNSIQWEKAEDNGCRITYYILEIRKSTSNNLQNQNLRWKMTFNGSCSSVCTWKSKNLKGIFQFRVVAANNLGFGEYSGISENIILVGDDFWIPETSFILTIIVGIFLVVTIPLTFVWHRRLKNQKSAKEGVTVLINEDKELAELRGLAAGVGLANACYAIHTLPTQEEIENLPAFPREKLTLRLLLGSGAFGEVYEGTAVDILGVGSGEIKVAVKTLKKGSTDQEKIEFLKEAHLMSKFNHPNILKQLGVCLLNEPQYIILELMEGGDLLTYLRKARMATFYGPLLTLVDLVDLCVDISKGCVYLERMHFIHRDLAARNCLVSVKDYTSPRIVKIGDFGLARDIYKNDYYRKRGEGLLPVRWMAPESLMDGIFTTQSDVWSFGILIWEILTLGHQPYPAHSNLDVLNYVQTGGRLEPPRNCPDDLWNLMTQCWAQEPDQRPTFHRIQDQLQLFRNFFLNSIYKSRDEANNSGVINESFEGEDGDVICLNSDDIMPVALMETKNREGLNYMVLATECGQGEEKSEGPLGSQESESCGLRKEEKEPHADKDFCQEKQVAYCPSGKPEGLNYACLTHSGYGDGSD
High affinity nerve growth factor receptor (Homo sapiens), sequence (P04629 33-796 limits assumed): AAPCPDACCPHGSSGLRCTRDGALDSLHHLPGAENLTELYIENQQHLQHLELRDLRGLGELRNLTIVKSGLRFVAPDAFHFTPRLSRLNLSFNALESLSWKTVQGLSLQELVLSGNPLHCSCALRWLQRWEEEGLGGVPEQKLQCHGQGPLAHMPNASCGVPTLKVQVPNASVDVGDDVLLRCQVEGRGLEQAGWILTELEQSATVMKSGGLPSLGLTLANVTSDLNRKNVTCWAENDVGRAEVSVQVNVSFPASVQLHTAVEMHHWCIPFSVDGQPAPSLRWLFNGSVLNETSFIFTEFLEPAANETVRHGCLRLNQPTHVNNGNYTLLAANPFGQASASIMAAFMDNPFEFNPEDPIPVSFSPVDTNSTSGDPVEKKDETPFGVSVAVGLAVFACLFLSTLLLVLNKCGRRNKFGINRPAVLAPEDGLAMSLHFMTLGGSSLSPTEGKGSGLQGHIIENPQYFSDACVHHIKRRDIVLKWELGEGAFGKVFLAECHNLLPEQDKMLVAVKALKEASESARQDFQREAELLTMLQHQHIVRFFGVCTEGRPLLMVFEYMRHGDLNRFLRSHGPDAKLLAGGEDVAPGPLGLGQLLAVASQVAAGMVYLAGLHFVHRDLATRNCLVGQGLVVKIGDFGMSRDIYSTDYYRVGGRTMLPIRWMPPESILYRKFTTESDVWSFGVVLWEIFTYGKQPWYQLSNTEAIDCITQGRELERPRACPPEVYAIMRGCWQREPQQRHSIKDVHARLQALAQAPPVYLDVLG
Calcium/calmodulin-dependent protein kinase type II subunit alpha (Homo sapiens), sequence (Q9UQM7 whole entry): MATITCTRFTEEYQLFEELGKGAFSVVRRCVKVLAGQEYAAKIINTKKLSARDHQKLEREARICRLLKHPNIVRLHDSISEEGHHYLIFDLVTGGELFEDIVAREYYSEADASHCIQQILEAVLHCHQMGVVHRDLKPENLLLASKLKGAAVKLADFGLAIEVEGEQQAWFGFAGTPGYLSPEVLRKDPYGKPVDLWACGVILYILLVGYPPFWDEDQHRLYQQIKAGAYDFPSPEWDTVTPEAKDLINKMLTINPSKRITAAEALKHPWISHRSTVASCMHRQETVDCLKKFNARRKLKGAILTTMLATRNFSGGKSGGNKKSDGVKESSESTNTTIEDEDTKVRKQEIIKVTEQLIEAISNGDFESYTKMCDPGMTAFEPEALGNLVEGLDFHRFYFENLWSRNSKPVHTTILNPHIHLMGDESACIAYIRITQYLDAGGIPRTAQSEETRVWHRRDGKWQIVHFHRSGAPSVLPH
Serine/threonine-protein kinase SIK2 (Homo sapiens), sequence (Q9H0K1 whole entry, looked up): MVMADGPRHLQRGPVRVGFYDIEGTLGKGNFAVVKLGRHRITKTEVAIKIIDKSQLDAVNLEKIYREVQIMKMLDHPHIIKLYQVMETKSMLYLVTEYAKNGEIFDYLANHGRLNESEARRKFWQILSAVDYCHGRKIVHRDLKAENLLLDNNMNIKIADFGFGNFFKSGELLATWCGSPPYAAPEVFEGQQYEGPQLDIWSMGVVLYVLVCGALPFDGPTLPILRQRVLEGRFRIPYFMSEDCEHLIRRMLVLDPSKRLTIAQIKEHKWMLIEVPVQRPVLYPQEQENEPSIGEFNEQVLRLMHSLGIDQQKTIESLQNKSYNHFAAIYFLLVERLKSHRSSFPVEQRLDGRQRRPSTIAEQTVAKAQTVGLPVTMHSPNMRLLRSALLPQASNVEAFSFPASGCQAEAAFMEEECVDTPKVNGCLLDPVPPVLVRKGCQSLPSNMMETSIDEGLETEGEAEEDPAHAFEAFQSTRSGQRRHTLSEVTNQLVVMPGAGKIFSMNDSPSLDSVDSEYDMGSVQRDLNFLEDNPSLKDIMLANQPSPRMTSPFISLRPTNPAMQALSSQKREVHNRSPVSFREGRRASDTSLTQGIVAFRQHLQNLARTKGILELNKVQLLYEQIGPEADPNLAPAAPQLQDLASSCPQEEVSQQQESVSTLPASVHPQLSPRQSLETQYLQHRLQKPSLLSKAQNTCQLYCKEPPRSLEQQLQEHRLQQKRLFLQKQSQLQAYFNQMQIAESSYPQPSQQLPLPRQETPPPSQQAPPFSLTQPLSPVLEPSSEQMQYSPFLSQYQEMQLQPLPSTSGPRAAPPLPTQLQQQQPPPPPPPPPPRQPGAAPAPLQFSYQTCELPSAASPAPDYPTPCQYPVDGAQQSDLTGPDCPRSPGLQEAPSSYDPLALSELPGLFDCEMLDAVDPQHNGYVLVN

CN(C)C(=O)Cn1cc(-c2nc([C@@](C)(c3ccc(-c4cnc(N)nc4)cc3)C3CC3)no2)cn1 [BI 665915]
inactive: [1] 103% | [2] 93% | [3] 95.5% | [4] 103% | [5] 101% | [6] 102% | [7] 97.5% | [8] 97.5% | [9] 102% | [10] 71% | [11] 97.5% | [12] 107% | [13] 86% | [14] 98% | [15] 85%
